According to patent US7968570B2, “Isoindolone compounds and their use as metabotropic glutamate receptor potentiators” (AstraZeneca AB, priority 2004, dated 2011):
Where two headings read alike, the source gives them in different places.

Biological target: T1, human mGluR2 receptor (Homo sapiens, UniProt Q14416)
T1 construct: expressed in transfected cells
Test: [35S]-GTPγS binding assay of mGluR2 receptor activation
Assay type: biochemical
Description: A [^35S]-GTPγS binding assay was used to functionally assay mGluR2 receptor activation. The allosteric activator activity of compounds at the human mGluR2 receptor were measured using a [^35S]-GTPγS binding assay with membranes prepared from CHO cells which stably express the human mGluR2. The assay is based upon the principle that agonists bind to G-protein coupled receptors to stimulate GDP-GTP exchange at the G-protein. Since [^35S]-GTPγS is a non-hydrolyzable GTP analog, it can be used to provide an index of GDP-GTP exchange and, thus, receptor activation. The GTPγS binding assay therefore provides a quantitative measure of receptor activation.
Membranes were prepared from CHO cells stably transfected with human mGluR2. Membranes (30 μg protein) were incubated with test compound (3 nM to 300 μM) for 15 minutes at room temperature prior to the addition of 1 μM glutamate, and incubated for 30 min at 30° C. in 500 μl assay buffer (20 mM HEPES, 100 mM NaCl, 10 mM MgCl2), containing 30 μM GDP and 0.1 nM [^35S]-GTPγS (1250 Ci/mmol). Reactions were carried out in triplicate in 2 ml polypropylene 96-well plates. Reactions were terminated by vacuum filtration using a Packard 96-well harvester and Unifilter-96, GF/B filter microplates. The filter plates were washed 4×1.5 ml with ice-cold wash buffer (10 mM sodium phosphate buffer, pH 7.4). The filter plates were dried and 35 μl of scintillation fluid (Microscint 20) was added to each well. The amount of radioactivity bound was determined by counting plates on the Packard TopCount. Data was analyzed using GraphPad Prism, and EC50 and Emax values (relative to the maximum glutamate effect) were calculated using non-linear regression.

[1] = membranes from CHO cells stably expressing human mGluR2, 1 μM glutamate

T1 sequence (Q14416 19-872): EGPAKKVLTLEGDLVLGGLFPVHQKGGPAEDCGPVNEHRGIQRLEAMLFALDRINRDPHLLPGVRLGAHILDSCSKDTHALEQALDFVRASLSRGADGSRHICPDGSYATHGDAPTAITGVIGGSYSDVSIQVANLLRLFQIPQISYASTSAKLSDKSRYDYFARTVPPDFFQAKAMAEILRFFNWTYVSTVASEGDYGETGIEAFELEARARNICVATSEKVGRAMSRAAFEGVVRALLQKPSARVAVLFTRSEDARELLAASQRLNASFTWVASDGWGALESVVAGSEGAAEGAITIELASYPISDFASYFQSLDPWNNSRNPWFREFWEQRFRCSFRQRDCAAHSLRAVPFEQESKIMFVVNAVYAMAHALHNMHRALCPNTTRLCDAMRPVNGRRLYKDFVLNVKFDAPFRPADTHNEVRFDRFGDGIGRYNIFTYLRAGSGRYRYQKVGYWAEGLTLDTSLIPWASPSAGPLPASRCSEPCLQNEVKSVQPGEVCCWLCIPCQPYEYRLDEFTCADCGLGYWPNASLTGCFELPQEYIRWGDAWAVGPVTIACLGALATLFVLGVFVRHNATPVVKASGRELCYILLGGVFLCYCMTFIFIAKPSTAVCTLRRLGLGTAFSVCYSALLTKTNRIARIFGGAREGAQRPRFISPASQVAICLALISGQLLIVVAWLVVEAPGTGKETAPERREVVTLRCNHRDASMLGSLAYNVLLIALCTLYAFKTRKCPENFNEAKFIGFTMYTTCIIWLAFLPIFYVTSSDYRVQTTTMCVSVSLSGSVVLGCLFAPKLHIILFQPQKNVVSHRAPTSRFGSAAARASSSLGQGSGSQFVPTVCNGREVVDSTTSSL

| EC50 [1] | EC50 | SMILES |
| --- | --- | --- |
| 610 nM | – | CN(C)C1CCN(c2cc(Cl)c3c(c2)CN(Cc2ccc(Cl)cc2)C3=O)C1 (centres unmarked) [Example 135, 7-Chloro-2-(4-chloro-benzyl)-5-(3-dimethylamino-pyrolidin-1-yl)-2,3-dihydro-isoindol-1-one] |
| 1910 nM | – | COc1cc(N2CCN3CCCC3C2)cc2c1C(=O)N(Cc1ccc(OC(F)(F)F)cc1)C2 (centres unmarked) [Example 124, 5- (Hexahydropyrrolo [1,2-a]pyrazin-2-yl)-7-methoxy-2-(4-trifluoromethoxy-benzyl)-2,3-dihydroisoindol-1-one] |
| 9830 nM | – | O=C1c2ccc(N3CCN(c4ccncc4)CC3)cc2CN1Cc1ccc(OC(F)(F)F)cc1 [Example 149, 5-(4-Pyridin-4-yl-piperazin-1-yl)-2-(4-trifluoromethoxy-benzyl)-2,3-dihydro isoindol-1-one] |
| 360 nM | – | Cc1cc(N2CCN(Cc3cccnc3)CC2)cc2c1C(=O)N(Cc1ccc(OC(F)(F)F)cc1)C2 [Example 138, 7-Methyl-5-(4-pyridin-3-ylmethyl-piperazin-1-yl)-2-(4-trifluoromethoxy-benzyl)-2,3-dihydro-isoindol-1-one] |
| 7020 nM | – | Cc1cc(CNCC(C)O)cc2c1C(=O)N(Cc1ccc(OC(F)(F)F)cc1)C2 (centres unmarked) [Example 52, 5-[(2-Hydroxy-propylamino)-methyl]-7-methyl-2-(4-trifluoromethoxy-benzyl)-2,3-dihydro-isoindol-1-one] |
| 70 nM | – | Cc1cc(CN(C)Cc2ccccc2)cc2c1C(=O)N(Cc1ccc(OC(F)(F)F)cc1)C2 [compound 35, 5-[(Benzylmethylamino)-methyl]-7-methyl-2-(4-trifluoromethoxy-benzyl)-2,3-dihydro-isoindol-1-one] |
| – | 1510 nM | CCCN1CCC(Cc2cc(C)c3c(c2)CN(Cc2ccc(OC(F)(F)F)cc2)C3=O)CC1 [Example 172, 7-methyl-5-(1-propyl-piperidin-4-ylmethyl)-2-(4-trifluorometh-oxy-benzyl)-2,3-dihydro-isoindol-1-one] |
| – | 520 nM | CCN1CCC(Cc2cc(C)c3c(c2)CN(Cc2ccc(OC(F)(F)F)cc2)C3=O)CC1 [Example 166, 5-(1-Ethyl-piperidin-4-ylmethyl)-7-methyl-2-(4-trifluorometh-oxy-benzyl)-2,3-dihydro-isoindol-1-one] |
| 40 nM | – | Cc1cc(-c2ccncc2)cc2c1C(=O)N(Cc1ccc(Oc3ccccc3)cc1)C2 [Example 103, 7-Methyl-2-(4-phenoxy-benzyl)-5-pyridin-4-yl-2,3-dihydro-isoindol-1-one] |
| – | 40 nM | Cc1cc(CC2CCN(Cc3ccc(C#N)cc3)CC2)cc2c1C(=O)N(Cc1ccc(OC(F)(F)F)cc1)C2 [Example 171, 4-{4-[7-methyl-1-oxo-2-(4-trifluorometh-oxy-benzyl)-2,3-dihydro-1H-isoindol-5-ylmethyl]-piperidin-1-ylmethyl}-benzonitrile] |
| 2400 nM | – | Cc1cc(CN2CC=CC2)cc2c1C(=O)N(Cc1ccc(OC(F)(F)F)cc1)C2 [Example 39, 5-(2,5-Dihydro-pyrrol-1-ylmethyl)-7-methyl-2-(4-trifluoromethoxy-benzyl)-2,3-dihydro-isoindol-1-one] |
| 300 nM | – | Cc1cc(-c2ccncc2)cc2c1C(=O)N(Cc1ccc(Cl)cc1)C2 [Example 97, 2-(4-chlorobenzyl)-7-methyl-5-pyridin-4-yl-2,3-dihydroisoindol-1-one] |
| 1200 nM | – | Cc1cc(N2CCN(CCN(C)C)CC2)cc2c1C(=O)N(Cc1ccc(OC(F)(F)F)cc1)C2 [Example 140, 5-[4-(2-Dimethylamino-ethyl)-piperazin-1-yl]-7-methyl-2-(4-trifluoro-methoxy-benzyl)-2,3-dihydro-isoindol-1-one] |
| – | 820 nM | Cc1cc(CC2CCN(C3CCCC3)CC2)cc2c1C(=O)N(Cc1ccc(OC(F)(F)F)cc1)C2 [Example 173, 5-(1-cyclopentyl-piperidin-4-ylmethyl)-7-methyl-2-(4-trifluorometh-oxy-benzyl)-2,3-dihydro-isoindol-1-one] |
